# Results: DBAASP
# What was measured:
# Experiment in all cases: ≥ marks a high value that may be exact or a test limit, other limits are often not marked, values filed in µg/mL are converted to µM
# Escherichia coli JW0013 = system: Escherichia coli JW0013
# [1] = system: Escherichia coli KCTC 1682
# [2] = system: Bacillus subtilis KCTC 3068
# [3] = system: Staphylococcus aureus KCTC 1621
# [4] = system: Pseudomonas aeruginosa KCTC 1637
# [5] = system: Salmonella typhimurium KCTC 1926
# [6] = system: Staphylococcus epidermidis KCTC 1917
SMILES,MIC (Escherichia coli JW0013) [µM],MIC [1] [µM],MIC [2] [µM],MIC [3] [µM],MIC [4] [µM],MIC [5] [µM],MIC [6] [µM]
CC[C@H](C)[C@H](NC(=O)[C@H](CCCN=C(N)N)NC(=O)[C@H](CCCN=C(N)N)NC(=O)[C@@H]1CCCN1C(=O)[C@@H]1CCCN1C(=O)[C@H](CCCN=C(N)N)NC(=O)[C@H](CCCCN)NC(=O)[C@H](CCCN=C(N)N)NC(=O)[C@@H]1CCCN1C(=O)[C@H](CC(C)C)NC(=O)[C@H](Cc1ccc(O)cc1)NC(=O)[C@@H]1CCCN1C(=O)[C@H](CCCCN)NC(=O)[C@H](CCCCN)NC(=O)[C@H](CC(=O)O)NC(=O)[C@@H](N)C(C)C)C(=O)N[C@@H](Cc1ccc(O)cc1)C(=O)N[C@@H](CC(N)=O)C(=O)N[C@@H](CCCN=C(N)N)C(N)=O [VDKKPYLPRKRPPRRIYNR],0.489,–,–,–,–,–,–
CC[C@H](C)[C@H](NC(=O)[C@H](CC(C)C)NC(=O)[C@@H](N)CC(C)C)C(=O)N[C@H](C(=O)N[C@@H](CC(C)C)C(=O)N[C@@H](CCCN=C(N)N)C(=O)N[C@@H](CCCN=C(N)N)C(=O)N[C@@H](CCCN=C(N)N)C(=O)N[C@@H](Cc1c[nH]c2ccccc12)C(=O)N[C@@H](CCCN=C(N)N)C(=O)N[C@@H](CCCCN)C(=O)N[C@@H](CCC(N)=O)C(=O)N[C@@H](C)C(=O)N[C@@H](CCCN=C(N)N)C(=O)N[C@@H](C)C(=O)N[C@@H](CCCN=C(N)N)C(=O)N[C@@H](CO)C(=O)N[C@@H](CCCCN)C(N)=O)[C@@H](C)CC [LLIILRRRWRKQARARSK],–,8,4,4,8,4,8
CC[C@H](C)[C@H](NC(=O)[C@H](CC(C)C)NC(=O)[C@@H](N)CC(C)C)C(=O)N[C@H](C(=O)N[C@@H](CC(C)C)C(=O)N[C@@H](CCCCN)C(=O)N[C@@H](CCCCN)C(=O)N[C@@H](CCCCN)C(=O)N[C@@H](Cc1c[nH]c2ccccc12)C(=O)N[C@@H](CCCCN)C(=O)N[C@@H](CCCCN)C(=O)N[C@@H](CCC(N)=O)C(=O)N[C@@H](C)C(=O)N[C@@H](CCCCN)C(=O)N[C@@H](C)C(=O)N[C@@H](CCCCN)C(=O)N[C@@H](CO)C(=O)N[C@@H](CCCCN)C(N)=O)[C@@H](C)CC [LLIILKKKWKKQAKAKSK],–,8,4,4,8,4,8
CC[C@H](C)[C@H](NC(=O)[C@H](CCCN=C(N)N)NC(=O)[C@H](CCCN=C(N)N)NC(=O)[C@@H]1CCCN1C(=O)[C@@H]1CCCN1C(=O)[C@H](CCCN=C(N)N)NC(=O)[C@H](CCCCN)NC(=O)[C@H](CCCN=C(N)N)NC(=O)[C@@H]1CCCN1C(=O)[C@H](CC(C)C)NC(=O)[C@H](Cc1ccc(O)cc1)NC(=O)[C@@H]1CCCN1C(=O)[C@H](CCCN=C(N)N)NC(=O)[C@H](CCCCN)NC(=O)[C@H](CC(=O)O)NC(=O)[C@@H](N)C(C)C)C(=O)N[C@@H](Cc1ccc(O)cc1)C(=O)N[C@@H](CC(N)=O)C(=O)N[C@@H](CCCN=C(N)N)C(N)=O [VDKRPYLPRKRPPRRIYNR],0.685,–,–,–,–,–,–
CC[C@H](C)[C@H](N)C(=O)NCC(=O)N[C@@H](CCCCN)C(=O)N[C@@H](CC(C)C)C(=O)N[C@@H](Cc1ccccc1)C(=O)N[C@@H](CCCCN)C(=O)N[C@@H](CCCN=C(N)N)C(=O)N[C@H](C(=O)N[C@H](C(=O)N[C@@H](CCCCN)C(=O)N[C@@H](CCCN=C(N)N)C(=O)N[C@H](C(=O)N[C@@H](CC(C)C)C(=O)N[C@@H](CCCCN)C(=O)N[C@@H](Cc1ccccc1)C(=O)N[C@@H](CC(C)C)C(=O)N[C@@H](CCCN=C(N)N)C(=O)N[C@@H](CCCCN)C(=O)N[C@@H](CC(C)C)C(=O)O)[C@@H](C)CC)C(C)C)[C@@H](C)CC [IGKLFKRIVKRILKFLRKL],–,8,2,4,8,4,4
CC[C@H](C)[C@H](NC(=O)[C@H](CCCN=C(N)N)NC(=O)[C@H](CCCN=C(N)N)NC(=O)[C@@H]1CCCN1C(=O)[C@@H]1CCCN1C(=O)[C@H](CCCN=C(N)N)NC(=O)[C@@H]1CCCN1C(=O)[C@H](CCCN=C(N)N)NC(=O)[C@@H]1CCCN1C(=O)[C@H](CC(C)C)NC(=O)[C@H](Cc1ccc(O)cc1)NC(=O)[C@@H]1CCCN1C(=O)[C@@H]1CCCN1C(=O)[C@H](CCCCN)NC(=O)[C@H](CC(=O)O)NC(=O)[C@@H](N)CCCN=C(N)N)C(=O)N[C@@H](Cc1ccc(O)cc1)C(=O)N[C@@H](CC(N)=O)C(=O)N[C@@H](CCCN=C(N)N)C(N)=O [RDKPPYLPRPRPPRRIYNR],1.96,–,–,–,–,–,–
CC[C@H](C)[C@H](NC(=O)[C@H](CCCN=C(N)N)NC(=O)[C@H](CCCN=C(N)N)NC(=O)[C@@H]1CCCN1C(=O)[C@@H]1CCCN1C(=O)[C@H](CCCN=C(N)N)NC(=O)[C@H](CCCCN)NC(=O)[C@H](CCCN=C(N)N)NC(=O)[C@@H]1CCCN1C(=O)[C@H](CC(C)C)NC(=O)[C@H](Cc1ccc(O)cc1)NC(=O)[C@H](Cc1cnc[nH]1)NC(=O)[C@H](CCCCN)NC(=O)[C@H](CCCCN)NC(=O)[C@H](CC(=O)O)NC(=O)[C@@H](N)C(C)C)C(=O)N[C@@H](Cc1ccc(O)cc1)C(=O)N[C@@H](CC(N)=O)C(=O)N[C@@H](CCCN=C(N)N)C(N)=O [VDKKHYLPRKRPPRRIYNR],0.682,–,–,–,–,–,–
CC[C@H](C)[C@H](NC(=O)[C@H](CCCN=C(N)N)NC(=O)[C@H](CCCN=C(N)N)NC(=O)[C@@H]1CCCN1C(=O)[C@@H]1CCCN1C(=O)[C@H](CCCN=C(N)N)NC(=O)[C@H](CCCN=C(N)N)NC(=O)[C@H](CCCN=C(N)N)NC(=O)[C@@H]1CCCN1C(=O)[C@H](CC(C)C)NC(=O)[C@H](Cc1ccc(O)cc1)NC(=O)[C@H](Cc1cnc[nH]1)NC(=O)[C@H](CCCCN)NC(=O)[C@H](CCCCN)NC(=O)[C@H](CC(=O)O)NC(=O)[C@@H](N)C(C)C)C(=O)N[C@@H](Cc1ccc(O)cc1)C(=O)N[C@@H](CC(N)=O)C(=O)N[C@@H](CCCN=C(N)N)C(N)=O [VDKKHYLPRRRPPRRIYNR],0.952,–,–,–,–,–,–
CC[C@H](C)[C@H](NC(=O)[C@H](Cc1c[nH]c2ccccc12)NC(=O)[C@H](CCCN=C(N)N)NC(=O)[C@@H](NC(=O)[C@@H](NC(=O)[C@H](CCCN=C(N)N)NC(=O)[C@H](CCCCN)NC(=O)[C@@H](N)Cc1c[nH]c2ccccc12)[C@@H](C)CC)C(C)C)C(=O)N[C@@H](CCCCN)C(=O)N[C@@H](CCCN=C(N)N)C(=O)N[C@@H](Cc1c[nH]c2ccccc12)C(=O)N[C@@H](CC(C)C)C(=O)N[C@@H](CCCN=C(N)N)C(N)=O [WKRIVRWIKRWLR],–,8,4,2,4,4,8
CC[C@H](C)[C@H](NC(=O)[C@H](CCCN=C(N)N)NC(=O)[C@H](CCCN=C(N)N)NC(=O)[C@@H]1CCCN1C(=O)[C@@H]1CCCN1C(=O)[C@H](CCCN=C(N)N)NC(=O)[C@@H]1CCCN1C(=O)[C@H](CCCN=C(N)N)NC(=O)[C@@H]1CCCN1C(=O)[C@H](CC(C)C)NC(=O)[C@H](Cc1ccc(O)cc1)NC(=O)[C@@H]1CCCN1C(=O)[C@@H]1CCCN1C(=O)[C@H](CCCCN)NC(=O)[C@H](CCCCN)NC(=O)[C@@H](N)C(C)C)C(=O)N[C@@H](Cc1ccc(O)cc1)C(=O)N[C@@H](CC(N)=O)C(=O)N[C@@H](CCCN=C(N)N)C(N)=O [VKKPPYLPRPRPPRRIYNR],1.37,–,–,–,–,–,–
CC[C@H](C)[C@H](NC(=O)[C@H](CCCN=C(N)N)NC(=O)[C@H](CCCN=C(N)N)NC(=O)[C@@H]1CCCN1C(=O)[C@@H]1CCCN1C(=O)[C@H](CCCN=C(N)N)NC(=O)[C@H](CCCCN)NC(=O)[C@H](CCCN=C(N)N)NC(=O)[C@@H]1CCCN1C(=O)[C@H](CC(C)C)NC(=O)[C@H](Cc1ccc(O)cc1)NC(=O)[C@H](Cc1cnc[nH]1)NC(=O)[C@H](CCCN=C(N)N)NC(=O)[C@H](CCCCN)NC(=O)[C@H](CC(=O)O)NC(=O)[C@@H](N)C(C)C)C(=O)N[C@@H](Cc1ccc(O)cc1)C(=O)N[C@@H](CC(N)=O)C(=O)N[C@@H](CCCN=C(N)N)C(N)=O [VDKRHYLPRKRPPRRIYNR],0.635,–,–,–,–,–,–
CC[C@H](C)[C@H](NC(=O)[C@H](CCCCN)NC(=O)[C@@H](N)CCCN=C(N)N)C(=O)N[C@@H](CCCN=C(N)N)C(=O)N1CCC[C@H]1C(=O)N[C@@H](CCCN=C(N)N)C(=O)N1CCC[C@H]1C(=O)N1CCC[C@H]1C(=O)N[C@@H](CCCN=C(N)N)C(=O)N[C@@H](CC(C)C)C(=O)N1CCC[C@H]1C(=O)N[C@@H](CCCN=C(N)N)C(=O)N1CCC[C@H]1C(=O)N[C@@H](CCCN=C(N)N)C(=O)N1CCC[C@H]1C(=O)N[C@@H](CCCN=C(N)N)C(=O)O [RKIRPRPPRLPRPRPR],0.3,–,–,–,–,–,–
CC[C@H](C)[C@H](NC(=O)[C@H](CC(C)C)NC(=O)[C@@H](N)CC(C)C)C(=O)N[C@H](C(=O)N[C@@H](CC(C)C)C(=O)N[C@@H](CCCN=C(N)N)C(=O)N[C@@H](CCCN=C(N)N)C(=O)N[C@@H](CCCN=C(N)N)C(=O)N[C@@H](Cc1c[nH]c2ccccc12)C(=O)N[C@@H](CCCN=C(N)N)C(=O)N[C@@H](CCCN=C(N)N)C(=O)N[C@@H](CCC(N)=O)C(=O)N[C@@H](C)C(=O)N[C@@H](CCCN=C(N)N)C(=O)N[C@@H](C)C(=O)N[C@@H](CCCN=C(N)N)C(=O)N[C@@H](CO)C(=O)N[C@@H](CCCN=C(N)N)C(N)=O)[C@@H](C)CC [LLIILRRRWRRQARARSR],–,8,4,4,8,4,8
CC[C@H](C)[C@H](NC(=O)[C@H](CCCN=C(N)N)NC(=O)[C@H](CCCN=C(N)N)NC(=O)[C@@H]1CCCN1C(=O)[C@@H]1CCCN1C(=O)[C@H](CCCN=C(N)N)NC(=O)[C@@H]1CCCN1C(=O)[C@H](CCCN=C(N)N)NC(=O)[C@@H]1CCCN1C(=O)[C@H](CC(C)C)NC(=O)[C@H](Cc1ccc(O)cc1)NC(=O)[C@H](CCCN=C(N)N)NC(=O)[C@@H]1CCCN1C(=O)[C@H](CCCCN)NC(=O)[C@H](CC(=O)O)NC(=O)[C@@H](N)C(C)C)C(=O)N[C@@H](Cc1ccc(O)cc1)C(=O)N[C@@H](CC(N)=O)C(=O)N[C@@H](CCCN=C(N)N)C(N)=O [VDKPRYLPRPRPPRRIYNR],1.35,–,–,–,–,–,–
